# Activity calls are given as the source filed them. No cut-off for these calls is given here.
# What was measured:
# [1] = molecular target: Serine/threonine-protein kinase mTOR (Homo sapiens) (UniProt P42345); experiment: Inhibition of MTOR (unknown origin) assessed as remaining activity at 1 uM by Kinome scan method relative to control
# [2] = molecular target: Phosphorylase b kinase gamma catalytic chain, liver/testis isoform (Homo sapiens) (UniProt P15735); experiment: Inhibition of PHKG2 (unknown origin) assessed as remaining activity at 1 uM by Kinome scan method relative to control
# [3] = molecular target: Platelet-derived growth factor receptor beta (Homo sapiens) (UniProt P09619); experiment: Inhibition of PDGFRbeta (unknown origin) assessed as remaining activity at 1 uM by Kinome scan method relative to control
# BaF3 [4] = experiment: Antiproliferative activity against mouse BaF3 cells expressing TEL-fused JAK1 assessed growth inhibition incubated for 2 to 5 days by CellTiter-Glo assay; assay type: functional; conditions: time 2-5 day
# BaF3 [5] = experiment: Antiproliferative activity against mouse BaF3 cells expressing TEL-fused JAK2 assessed growth inhibition incubated for 2 to 5 days by CellTiter-Glo assay; assay type: functional; conditions: time 2-5 day
# DU-145 = experiment: Antiproliferative activity against human DU-145 cells assessed growth inhibition incubated for 2 to 5 days by CellTiter-Glo assay; assay type: functional; conditions: time 2-5 day
# [6] = test system: Tyrosine-protein kinase ABL1 (Homo sapiens), P00519 [E255K]; experiment: Inhibition of phosphorylated ABL1 E255K mutant (unknown origin) assessed as remaining activity at 1 uM by Kinome scan method relative to control
# [7] = molecular target: Peripheral plasma membrane protein CASK (Homo sapiens) (UniProt O14936); experiment: Inhibition of CASK (unknown origin) assessed as remaining activity at 1 uM by Kinome scan method relative to control
# [8] = molecular target: Dual specificity protein kinase CLK4 (Homo sapiens) (UniProt Q9HAZ1); experiment: Inhibition of CLK4 (unknown origin) assessed as remaining activity at 1 uM by Kinome scan method relative to control
# [9] = molecular target: Macrophage colony-stimulating factor 1 receptor (Homo sapiens) (UniProt P07333); experiment: Inhibition of CSF1R (unknown origin) assessed as remaining activity at 1 uM by Kinome scan method relative to control
# [10] = molecular target: Casein kinase II subunit alpha (Homo sapiens) (UniProt P68400); experiment: Inhibition of CSNK2A1 (unknown origin) assessed as remaining activity at 1 uM by Kinome scan method relative to control
# [11] = molecular target: Ephrin type-A receptor 1 (Homo sapiens) (UniProt P21709); experiment: Inhibition of EPHA1 (unknown origin) assessed as remaining activity at 1 uM by Kinome scan method relative to control
# [12] = molecular target: Receptor tyrosine-protein kinase erbB-4 (Homo sapiens) (UniProt Q15303); experiment: Inhibition of ERBB4 (unknown origin) assessed as remaining activity at 1 uM by Kinome scan method relative to control
# [13] = molecular target: Cyclin-G-associated kinase (Homo sapiens) (UniProt O14976); experiment: Inhibition of GAK (unknown origin) assessed as remaining activity at 1 uM by Kinome scan method relative to control
# [14] = test system: Mast/stem cell growth factor receptor Kit (Homo sapiens), P10721 [A829P]; experiment: Inhibition of KIT A829P mutant (unknown origin) assessed as remaining activity at 1 uM by Kinome scan method relative to control
# [15] = molecular target: LIM domain kinase 2 (Homo sapiens) (UniProt P53671); experiment: Inhibition of LIMK2 (unknown origin) assessed as remaining activity at 1 uM by Kinome scan method relative to control
# [16] = molecular target: MAP/microtubule affinity-regulating kinase 3 (Homo sapiens) (UniProt P27448); experiment: Inhibition of MARK3 (unknown origin) assessed as remaining activity at 1 uM by Kinome scan method relative to control
# [17] = test system: Phosphatidylinositol 4,5-bisphosphate 3-kinase catalytic subunit alpha isoform (Homo sapiens), P42336 [I800L]; experiment: Inhibition of PIK3CA I800L mutant (unknown origin) assessed as remaining activity at 1 uM by Kinome scan method relative to control
# [18] = molecular target: Phosphatidylinositol 4-kinase beta (Homo sapiens) (UniProt Q9UBF8); experiment: Inhibition of PIK4CB (unknown origin) assessed as remaining activity at 1 uM by Kinome scan method relative to control
# [19] = molecular target: Serine/threonine-protein kinase PLK2 (Homo sapiens) (UniProt Q9NYY3); experiment: Inhibition of PLK2 (unknown origin) assessed as remaining activity at 1 uM by Kinome scan method relative to control
# [20] = test system: Proto-oncogene tyrosine-protein kinase receptor Ret (Homo sapiens), P07949 [V804L]; experiment: Inhibition of RET V804L (unknown origin) assessed as remaining activity at 1 uM by Kinome scan method relative to control
# [21] = molecular target: Ribosomal protein S6 kinase alpha-3 (Homo sapiens) (UniProt P51812); experiment: Inhibition of N-terminal kinase domain RSK2 (unknown origin) assessed as remaining activity at 1 uM by Kinome scan method relative to control
# [22] = molecular target: Ribosomal protein S6 kinase alpha-6 (Homo sapiens) (UniProt Q9UK32); experiment: Inhibition of C-terminal kinase domain RSK4 (unknown origin) assessed as remaining activity at 1 uM by Kinome scan method relative to control
# [23] = molecular target: Proto-oncogene tyrosine-protein kinase Src (Homo sapiens) (UniProt P12931); experiment: Inhibition of SRC (unknown origin) assessed as remaining activity at 1 uM by Kinome scan method relative to control
# [24] = molecular target: Non-receptor tyrosine-protein kinase TYK2 (Homo sapiens) (UniProt P29597); experiment: Inhibition of TYK2 JH1 domain (unknown origin) assessed as remaining activity at 1 uM by Kinome scan method relative to control
# [25] = molecular target: Serine/threonine-protein kinase ULK3 (Homo sapiens) (UniProt Q6PHR2); experiment: Inhibition of ULK3 (unknown origin) assessed as remaining activity at 1 uM by Kinome scan method relative to control
# RV-1 [26] = experiment: Antiproliferative activity against human RV-1 cells assessed as reduction in cell viability at 500 to 2500 nM incubated for 5 days in presence of lapatinib by CellTiter-Glo assay; assay type: functional, cell-based; conditions: dose 500-2500 nM, time 5.0 day
# RV-1 [27] = experiment: Antiproliferative activity against human RV-1 cells assessed as reduction in cell viability at 500 to 2500 nM incubated for 5 days in presence of <25 nM MK2206 by CellTiter-Glo assay; assay type: functional, cell-based; conditions: dose 500-2500 nM, time 5.0 day
# [28] = Induction of cell cycle arrest in human RV-1 cells assessed as accumulation of cells at G2/M phase at 2.5 uM incubated for 5 days in presence of MK2206 by propidium iodide staining based flow cytometric analysis (reference value: 11.4 %); assay type: functional; conditions: time 5 day
# [29] = Inhibition of PI3K/AKT/mTOR signalling pathway in human RV-1 cells assessed as decrease in FOXO3A phosphorylation at S253 residue at 2.5 uM incubated for 4 hrs by immunoblot analysis; assay type: cell-based
# [30] = Inhibition of PI3K/AKT/mTOR signalling pathway in human RV-1 cells assessed as decrease in 4EBP phosphorylation at T37/46 residue at 2.5 uM incubated for 4 hrs by immunoblot analysis; assay type: cell-based
# [31] = Inhibition of PI3K/AKT/mTOR signalling pathway in human RV-1 cells assessed as decrease in S6K phosphorylation at T389 residue at 2.5 uM incubated for 5 days in presence of MK2206 by immunoblot analysis; assay type: cell-based; conditions: time 5.0 day
# Chain of Dual specificity protein kinase CLK4 (Homo sapiens) (Q9HAZ1 whole entry, looked up): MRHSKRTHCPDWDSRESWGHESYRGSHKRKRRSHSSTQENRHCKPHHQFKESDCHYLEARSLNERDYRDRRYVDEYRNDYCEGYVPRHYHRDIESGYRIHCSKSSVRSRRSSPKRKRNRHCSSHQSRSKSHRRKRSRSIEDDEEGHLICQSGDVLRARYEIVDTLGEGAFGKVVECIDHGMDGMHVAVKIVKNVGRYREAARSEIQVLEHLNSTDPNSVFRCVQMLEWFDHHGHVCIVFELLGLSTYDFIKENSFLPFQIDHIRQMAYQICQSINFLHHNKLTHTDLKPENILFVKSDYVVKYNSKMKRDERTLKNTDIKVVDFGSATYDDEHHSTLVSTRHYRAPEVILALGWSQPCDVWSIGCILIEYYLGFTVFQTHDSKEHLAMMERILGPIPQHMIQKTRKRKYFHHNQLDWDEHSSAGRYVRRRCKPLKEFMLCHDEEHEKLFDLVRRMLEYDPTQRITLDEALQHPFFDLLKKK
# Chain of Macrophage colony-stimulating factor 1 receptor (Homo sapiens) (P07333 whole entry): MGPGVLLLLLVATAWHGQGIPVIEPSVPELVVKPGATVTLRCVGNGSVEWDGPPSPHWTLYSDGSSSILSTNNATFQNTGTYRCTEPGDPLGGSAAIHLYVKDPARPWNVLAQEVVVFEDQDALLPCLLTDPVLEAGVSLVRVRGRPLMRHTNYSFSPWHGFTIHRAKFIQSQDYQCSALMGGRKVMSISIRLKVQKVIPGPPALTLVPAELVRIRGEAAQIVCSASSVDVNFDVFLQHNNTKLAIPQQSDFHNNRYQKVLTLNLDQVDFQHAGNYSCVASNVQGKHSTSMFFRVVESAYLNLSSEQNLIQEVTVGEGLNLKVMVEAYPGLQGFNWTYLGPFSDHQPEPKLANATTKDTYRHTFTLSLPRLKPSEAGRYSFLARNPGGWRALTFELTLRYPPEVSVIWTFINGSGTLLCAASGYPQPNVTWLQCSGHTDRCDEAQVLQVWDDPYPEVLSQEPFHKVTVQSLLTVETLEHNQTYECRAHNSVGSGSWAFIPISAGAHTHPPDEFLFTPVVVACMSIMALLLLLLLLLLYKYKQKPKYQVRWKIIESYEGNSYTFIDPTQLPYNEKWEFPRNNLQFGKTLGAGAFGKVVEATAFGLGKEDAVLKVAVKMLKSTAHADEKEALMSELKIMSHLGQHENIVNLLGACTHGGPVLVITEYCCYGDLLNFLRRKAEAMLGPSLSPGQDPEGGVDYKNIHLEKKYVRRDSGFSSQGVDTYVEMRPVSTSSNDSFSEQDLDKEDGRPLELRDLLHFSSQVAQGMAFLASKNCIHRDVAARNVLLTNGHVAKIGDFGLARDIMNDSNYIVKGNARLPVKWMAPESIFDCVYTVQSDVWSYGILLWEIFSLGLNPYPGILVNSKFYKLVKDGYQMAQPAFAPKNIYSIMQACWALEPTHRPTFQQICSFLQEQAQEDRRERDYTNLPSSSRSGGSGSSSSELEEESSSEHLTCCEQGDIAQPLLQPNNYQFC
# Chain of Ribosomal protein S6 kinase alpha-6 (Homo sapiens) (Q9UK32 whole entry, the tested form may be a part): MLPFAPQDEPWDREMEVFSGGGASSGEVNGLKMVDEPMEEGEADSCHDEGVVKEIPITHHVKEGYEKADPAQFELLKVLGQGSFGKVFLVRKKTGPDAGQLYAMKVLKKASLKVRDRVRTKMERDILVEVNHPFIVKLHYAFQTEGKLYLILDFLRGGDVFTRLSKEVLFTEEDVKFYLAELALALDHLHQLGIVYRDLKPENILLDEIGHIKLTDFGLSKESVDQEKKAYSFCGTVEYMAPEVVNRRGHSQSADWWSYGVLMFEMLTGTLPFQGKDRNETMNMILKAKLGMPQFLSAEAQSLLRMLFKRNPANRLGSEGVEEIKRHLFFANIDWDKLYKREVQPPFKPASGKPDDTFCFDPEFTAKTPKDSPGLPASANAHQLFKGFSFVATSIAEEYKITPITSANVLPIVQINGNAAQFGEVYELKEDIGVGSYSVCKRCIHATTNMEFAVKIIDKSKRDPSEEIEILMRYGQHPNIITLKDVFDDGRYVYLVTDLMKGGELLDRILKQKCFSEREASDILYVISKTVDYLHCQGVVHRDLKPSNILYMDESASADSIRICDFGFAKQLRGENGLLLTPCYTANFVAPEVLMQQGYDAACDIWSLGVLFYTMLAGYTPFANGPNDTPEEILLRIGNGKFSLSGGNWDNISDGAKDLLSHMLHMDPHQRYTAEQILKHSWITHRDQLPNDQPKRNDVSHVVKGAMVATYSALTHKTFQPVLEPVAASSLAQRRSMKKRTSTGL
# Chain of Peripheral plasma membrane protein CASK (Homo sapiens) (O14936 whole entry): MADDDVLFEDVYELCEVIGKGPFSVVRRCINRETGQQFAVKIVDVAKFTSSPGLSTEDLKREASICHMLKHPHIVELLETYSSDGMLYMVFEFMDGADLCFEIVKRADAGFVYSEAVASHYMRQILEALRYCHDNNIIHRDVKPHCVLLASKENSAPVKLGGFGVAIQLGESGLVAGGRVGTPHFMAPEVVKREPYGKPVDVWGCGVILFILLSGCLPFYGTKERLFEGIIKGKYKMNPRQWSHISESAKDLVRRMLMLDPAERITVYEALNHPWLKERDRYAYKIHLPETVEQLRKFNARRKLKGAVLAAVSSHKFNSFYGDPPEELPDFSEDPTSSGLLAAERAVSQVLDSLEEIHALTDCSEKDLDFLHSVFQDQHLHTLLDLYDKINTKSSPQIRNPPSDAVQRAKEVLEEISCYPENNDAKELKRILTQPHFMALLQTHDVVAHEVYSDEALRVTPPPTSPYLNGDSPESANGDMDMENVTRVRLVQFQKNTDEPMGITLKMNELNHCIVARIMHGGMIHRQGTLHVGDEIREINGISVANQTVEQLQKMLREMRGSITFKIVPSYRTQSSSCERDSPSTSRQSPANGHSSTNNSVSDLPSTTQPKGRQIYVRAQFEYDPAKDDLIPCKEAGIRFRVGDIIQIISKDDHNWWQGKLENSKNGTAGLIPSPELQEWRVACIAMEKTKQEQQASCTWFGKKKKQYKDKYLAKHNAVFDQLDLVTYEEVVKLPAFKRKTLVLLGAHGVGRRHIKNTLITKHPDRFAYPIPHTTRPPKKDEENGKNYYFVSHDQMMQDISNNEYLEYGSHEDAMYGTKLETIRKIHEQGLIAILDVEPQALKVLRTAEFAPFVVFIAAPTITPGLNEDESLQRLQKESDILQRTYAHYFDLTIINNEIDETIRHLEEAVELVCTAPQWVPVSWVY
# Chain of Cyclin-G-associated kinase (Homo sapiens) (O14976 whole entry): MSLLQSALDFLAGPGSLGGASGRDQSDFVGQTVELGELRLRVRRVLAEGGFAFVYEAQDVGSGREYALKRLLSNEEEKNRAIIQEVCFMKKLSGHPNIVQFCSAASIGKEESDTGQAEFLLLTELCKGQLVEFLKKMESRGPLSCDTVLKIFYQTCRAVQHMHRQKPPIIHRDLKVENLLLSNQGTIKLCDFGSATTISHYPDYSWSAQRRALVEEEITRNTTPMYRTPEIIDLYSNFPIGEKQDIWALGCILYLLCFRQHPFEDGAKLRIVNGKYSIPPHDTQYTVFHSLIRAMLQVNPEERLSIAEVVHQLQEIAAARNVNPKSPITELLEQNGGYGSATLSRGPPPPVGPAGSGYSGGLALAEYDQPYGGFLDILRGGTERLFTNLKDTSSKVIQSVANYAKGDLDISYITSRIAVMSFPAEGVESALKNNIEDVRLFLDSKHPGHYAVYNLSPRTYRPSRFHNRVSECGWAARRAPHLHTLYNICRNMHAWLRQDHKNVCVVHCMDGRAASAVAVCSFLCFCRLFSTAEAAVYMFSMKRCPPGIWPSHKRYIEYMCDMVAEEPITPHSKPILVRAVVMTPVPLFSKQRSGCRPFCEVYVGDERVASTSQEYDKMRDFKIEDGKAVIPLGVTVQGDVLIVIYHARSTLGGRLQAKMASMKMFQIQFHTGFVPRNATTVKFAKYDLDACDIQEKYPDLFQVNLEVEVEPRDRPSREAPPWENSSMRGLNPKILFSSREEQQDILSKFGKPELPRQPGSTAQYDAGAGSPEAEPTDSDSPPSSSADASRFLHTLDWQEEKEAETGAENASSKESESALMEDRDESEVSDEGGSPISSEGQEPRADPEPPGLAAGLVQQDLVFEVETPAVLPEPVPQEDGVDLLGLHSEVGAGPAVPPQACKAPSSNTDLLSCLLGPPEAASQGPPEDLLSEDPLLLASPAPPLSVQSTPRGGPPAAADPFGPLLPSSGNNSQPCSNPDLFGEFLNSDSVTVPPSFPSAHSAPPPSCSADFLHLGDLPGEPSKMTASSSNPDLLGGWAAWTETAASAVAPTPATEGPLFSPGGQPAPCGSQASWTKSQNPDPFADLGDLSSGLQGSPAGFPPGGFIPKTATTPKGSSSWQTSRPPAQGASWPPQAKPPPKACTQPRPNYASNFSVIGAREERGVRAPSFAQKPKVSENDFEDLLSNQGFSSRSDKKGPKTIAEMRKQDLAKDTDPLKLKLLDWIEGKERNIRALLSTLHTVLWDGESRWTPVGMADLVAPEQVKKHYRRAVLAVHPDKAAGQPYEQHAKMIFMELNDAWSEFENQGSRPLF
# Chain of LIM domain kinase 2 (Homo sapiens) (P53671 whole entry, looked up, the tested form may be a part): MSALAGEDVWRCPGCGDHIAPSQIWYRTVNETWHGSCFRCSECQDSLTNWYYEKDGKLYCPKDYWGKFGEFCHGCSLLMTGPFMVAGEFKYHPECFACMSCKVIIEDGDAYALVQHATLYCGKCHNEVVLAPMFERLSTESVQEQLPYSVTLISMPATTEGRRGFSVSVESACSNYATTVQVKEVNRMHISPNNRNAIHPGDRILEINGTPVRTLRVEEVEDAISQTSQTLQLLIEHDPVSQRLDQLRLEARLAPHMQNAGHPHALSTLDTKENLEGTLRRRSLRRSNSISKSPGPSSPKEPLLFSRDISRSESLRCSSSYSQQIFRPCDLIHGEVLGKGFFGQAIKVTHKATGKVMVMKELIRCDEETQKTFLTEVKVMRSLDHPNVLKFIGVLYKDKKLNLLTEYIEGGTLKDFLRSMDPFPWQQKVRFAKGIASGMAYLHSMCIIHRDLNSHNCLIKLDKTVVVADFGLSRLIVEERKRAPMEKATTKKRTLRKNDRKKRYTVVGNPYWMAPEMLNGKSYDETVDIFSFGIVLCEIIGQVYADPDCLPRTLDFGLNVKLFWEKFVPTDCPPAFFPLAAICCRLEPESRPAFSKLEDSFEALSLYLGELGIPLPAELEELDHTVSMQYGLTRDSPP
structure (smiles),measurement,setting,value
C=CC(=O)Nc1cc(-n2c(=O)ccc3cnc4ccc(-c5ccc(NS(C)(=O)=O)cc5)cc4c32)ccc1C,Activity,[1],45%
same,Activity,[2],74%
same,Activity,[3],76%
same,GI50,BaF3 [4],4.92 µM
same,GI50,BaF3 [5],5.83 µM
same,GI50,DU-145,4.38 µM
same,Activity,[6],63%
same,Activity,[7],61%
same,Activity,[8],99%
same,Activity,[9],94%
same,Activity,[10],84%
same,Activity,[11],92%
same,Activity,[12],78%
same,Activity,[13],74%
same,Activity,[14],74%
same,Activity,[15],92%
same,Activity,[16],75%
same,Activity,[17],46%
same,Activity,[18],79%
same,Activity,[19],72%
same,Activity,[20],79%
same,Activity,[21],81%
same,Activity,[22],56%
same,Activity,[23],92%
same,Activity,[24],80%
same,Activity,[25],80%
same,Activity,RV-1 [26],Active
same,Activity,RV-1 [27],Active
same,Activity,[28],11.5%
same,inhibition,[29],inactive
same,inhibition,[30],inactive
same,inhibition,[31],Active

# Source: ChEMBL document CHEMBL5715949, “Discovery of a selective irreversible BMX inhibitor for prostate cancer” (ACS Chem Biol, 2013)
